For one experiment, the target named is H1 (Homo sapiens, UniProt P35367). Kind of experiment: Dominant interactions of congeners with histamine receptors: H1. The experiment is classed as binding.
Another experiment concerns the target H2 (Homo sapiens, UniProt P25021). As to the kind of experiment: Dominant interactions of congeners with histamine receptors: H2. The experiment is classed as binding.
A further experiment relates to Hx. Kind of experiment: Dominant interactions of congeners with histamine receptors: Hx. The experiment is classed as binding, Human.
The test system of experiment [1] is IgG antibody response to horse myoglobin (h-Mb). As to the kind of experiment: Inhibition of IgG and IgG subclass antibody response to horse myoglobin in immunized mice (anti-horse myoglobin ELISA). The experiment is classed as in vivo, DBA/2 mice. The note with it: vs saline control mice. The procedure: ELISA plates were coated with 10 ug/ml commercially available horse myoglobin (h-Mb) in PBS 50 ul/well overnight at 4 deg C. The plates were washed with PBS once. The plates were then coated with 50 ul BBA (1 mg/ml) and washed with PBS once. The plates were then coated with test serum diluted in PBS-Tween, 50 ul/well and incubated at 4 deg C. overnight. The plates were then washed with PBS-Tween three times. Anti-IgG (1:2000) was added and diluted with PBS-Tween. For the IgG antibody subclasses, anti-IgG1, anti-IgG2a, anti-IgG2b was diluted and added to selected wells. Incubation was at 4 deg C. for two hours. Washing was with PBS-Tween 2 times with 5 minutes between each wash. A 1 mg/ml OPD in citrate buffer solution pH5 was prepared and 10 ul of H2O2/10 ml was added to the buffer solution. 50 ul of buffer was added to each well and the plates were placed in the dark for about 10 minutes. The reaction was stopped with 50 ul of 5N H2SO4 in each well. The plates were then read on an Elisa reader.
The following immunization protocol was repeated several times. The results have been collected in FIGS. 1a-d.
This experiment was done using two groups of 2-6 DBA/2 mice (average weight 22 grams). One group of mice were given one treatment of compound 3 intravenously one day before antigen treatment (day-1) and two days following antigen treatment (day+2). The dose of compound 3 was approximately 36 mg/kg in 100 ul of PBS. The other group of mice was given a saline control in 100 ul PBS. On day 0 the two groups of mice were injected with 100 ug h-Mb in 100 ul CFA intravenously (i.v.). The mice were then boosted fourteen days later with 100 ug of h-Mb in 100 ul IFA. The mice were bled 30 days later.

The next experiment concerns H3. As to the kind of experiment: Dominant interactions of congeners with histamine receptors: H3. The experiment is classed as binding. The note with it: Human lymphocytes, monocytes and neutrophils.
For the next experiment, the system named is human Ts cells. The note with it: Khan et al. 1985, Sansoni et al. 1985; cited from earlier work.
The next experiment concerns murine NS cells. The note with it: in vitro; cited from earlier work.
Experiment [2] has as its system phytohemagglutinin-induced Th proliferation. Conditions: pretreatment of human Ts cells with histamine; mediated via H2 receptors; cited from earlier work.
Experiment [3] relates to pokeweed mitogen-induced B cell differentiation. Conditions: pretreatment of human Ts cells with histamine; mediated via H2 receptors; cited from earlier work.
The mark [4] stands for this setting: compound 3 approx. 36 mg/kg i.v. day -1 and day +2, FIG. 1.
[5] abbreviates: comparable experiment using Compound 1, FIG. 3.

Sequence of H2 (P25021 whole entry): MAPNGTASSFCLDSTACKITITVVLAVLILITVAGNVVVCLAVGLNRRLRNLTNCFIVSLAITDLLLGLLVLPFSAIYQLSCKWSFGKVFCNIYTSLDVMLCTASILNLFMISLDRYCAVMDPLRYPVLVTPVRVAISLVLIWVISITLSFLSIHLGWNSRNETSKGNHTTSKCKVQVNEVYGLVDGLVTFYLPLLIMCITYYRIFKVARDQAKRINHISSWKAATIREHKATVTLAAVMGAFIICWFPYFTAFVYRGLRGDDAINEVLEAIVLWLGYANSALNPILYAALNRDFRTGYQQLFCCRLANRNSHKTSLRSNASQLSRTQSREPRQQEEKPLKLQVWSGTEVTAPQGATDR
Sequence of H1 (P35367 whole entry): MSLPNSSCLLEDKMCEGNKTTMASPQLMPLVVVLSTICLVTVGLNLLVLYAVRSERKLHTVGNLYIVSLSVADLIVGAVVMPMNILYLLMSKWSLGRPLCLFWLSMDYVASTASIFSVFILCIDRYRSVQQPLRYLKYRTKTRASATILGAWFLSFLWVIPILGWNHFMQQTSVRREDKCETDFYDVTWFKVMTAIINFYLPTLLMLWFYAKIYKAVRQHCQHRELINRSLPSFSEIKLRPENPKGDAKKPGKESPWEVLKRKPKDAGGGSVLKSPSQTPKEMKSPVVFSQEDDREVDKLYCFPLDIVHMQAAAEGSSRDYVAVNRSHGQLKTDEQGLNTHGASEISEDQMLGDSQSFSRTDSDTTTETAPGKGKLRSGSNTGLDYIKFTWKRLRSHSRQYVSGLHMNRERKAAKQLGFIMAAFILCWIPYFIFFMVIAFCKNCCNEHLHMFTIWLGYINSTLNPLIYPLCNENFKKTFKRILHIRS

For the molecule `O=C(CCCCCNCCc1c[nH]cn1)Nc1ccc(C(F)(F)F)cc1` [Compound 3, His--NH--(CH2)5 CONH--phi--CF3], the “H1 receptor activity (in words)” value on H1 was “not H1 receptor activity”. Besides, on H2, the “H2 receptor activity (in words)” value is on record as “has been shown to have H2 receptor activity”. In the experiment with Hx, the “Hx activity (in words)” value was “some Hx activity”. In experiment [1] (setting [4]), the IgG1 response result is “lower”, the IgG2a response result is recorded as “lower”, the IgG2b response entry is given as “lower” and the “total IgG response to h-Mb” value was “much lower”.
Turning to `CC(CCCCC(=O)Nc1ccc(C(F)(F)F)cc1)NCCc1c[nH]cn1` (stereo not shown) [Compound 1, His--NH--CHCH3--(CH2)4 CONH--phi--CF3], in the experiment on H3, the H3 dominant interaction result is recorded as “AntiHx”. Further, in experiment [1] (setting [5]), the IgG1 response entry is “lower”, the IgG2a response entry is on record as “lower” and the IgG response entry is listed as “lower”.
As for `NCCc1c[nH]cn1` [Histamine], the Hx dominant interaction entry in the experiment on Hx (Human lymphocytes, monocytes and neutrophils) is “AntiHx”. In addition, in the experiment on human Ts cells, the “effect on human Ts cells” value is “activates human Ts cells”. Further, the “effect on suppressive ability of murine NS cells” value in the experiment with murine NS cells was “enhances the suppressive ability of murine NS cells in vitro”. In addition, the “phytohemagglutinin-induced Th proliferation” value in [2] is listed as “inhibited”. Also, the “pokeweed mitogen-induced B cell differentiation” value in experiment [3] was “inhibited”.

Source of the values: US5556872A, “Histamine derivatives useful as immunomodulators” (The Board of Trustees of the Leland Stanford Junior …, priority 1995, dated 1996).
